Values after ≈ are worked out from the molar mass of the structure shown.

Data set [1] addresses Phosphatidylinositol 4,5-bisphosphate 3-kinase catalytic subunit gamma isoform (Homo sapiens, UniProt P48736). In words: Inhibition of PI3Kgamma (unknown origin).
In data set [2] the target is T1, Phosphatidylinositol 4,5-bisphosphate 3-kinase catalytic subunit beta isoform (Homo sapiens, UniProt P42338). Briefly: Inhibition of PI3Kbeta (unknown origin).
For data set [3], the target named is T2, Phosphatidylinositol 4,5-bisphosphate 3-kinase catalytic subunit delta isoform (Homo sapiens, UniProt O00329).
T2 sequence (O00329 whole entry): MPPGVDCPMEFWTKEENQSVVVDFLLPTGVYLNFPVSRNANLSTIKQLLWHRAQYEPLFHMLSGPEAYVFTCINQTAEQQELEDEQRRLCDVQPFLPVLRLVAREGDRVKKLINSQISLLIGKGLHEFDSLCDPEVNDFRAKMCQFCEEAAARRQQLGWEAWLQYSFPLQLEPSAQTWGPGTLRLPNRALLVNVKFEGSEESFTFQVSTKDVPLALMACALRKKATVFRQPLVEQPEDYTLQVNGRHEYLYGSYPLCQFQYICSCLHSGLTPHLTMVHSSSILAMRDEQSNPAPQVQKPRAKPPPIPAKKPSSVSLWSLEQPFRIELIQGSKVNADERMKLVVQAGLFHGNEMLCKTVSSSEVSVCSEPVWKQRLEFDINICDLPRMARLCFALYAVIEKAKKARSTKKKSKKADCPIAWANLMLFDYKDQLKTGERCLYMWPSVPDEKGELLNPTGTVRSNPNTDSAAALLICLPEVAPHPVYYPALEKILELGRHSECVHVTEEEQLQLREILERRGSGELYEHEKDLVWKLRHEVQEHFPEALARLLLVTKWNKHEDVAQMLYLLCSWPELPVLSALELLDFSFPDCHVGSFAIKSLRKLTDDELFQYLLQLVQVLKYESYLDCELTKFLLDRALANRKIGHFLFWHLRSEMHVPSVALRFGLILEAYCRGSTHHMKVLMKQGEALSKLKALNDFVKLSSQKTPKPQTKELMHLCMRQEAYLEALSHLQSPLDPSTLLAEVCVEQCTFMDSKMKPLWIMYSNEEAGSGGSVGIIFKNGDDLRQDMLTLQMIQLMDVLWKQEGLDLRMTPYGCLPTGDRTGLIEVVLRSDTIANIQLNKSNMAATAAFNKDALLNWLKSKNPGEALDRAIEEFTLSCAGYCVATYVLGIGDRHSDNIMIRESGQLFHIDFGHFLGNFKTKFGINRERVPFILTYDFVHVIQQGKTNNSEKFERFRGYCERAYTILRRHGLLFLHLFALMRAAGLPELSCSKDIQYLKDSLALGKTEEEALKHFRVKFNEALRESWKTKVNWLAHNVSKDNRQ
Briefly: Inhibition of PI3Kdelta (unknown origin).

Data set [4] has as its target Phosphatidylinositol 4,5-bisphosphate 3-kinase catalytic subunit alpha isoform (Homo sapiens, UniProt P42336). Briefly: Inhibition of PI3Kalpha (unknown origin).
The target of data set [5] is T1, Phosphatidylinositol 4,5-bisphosphate 3-kinase catalytic subunit beta isoform. In words: Inhibition of N-terminal His-tagged truncated human PI3Kbeta (deltaN 1 to 108 residues) after 2 hrs in presence of [33P]ATP by BetaPlate liquid scintillation counting analysis.
Data set [6] can be described thus: Inhibition of PI3K in human lung parenchyma cells assessed as reduction in IL2 secretion.
Data set [7] in a line: Inhibition of PI3K in human lung parenchyma cells assessed as reduction in IFNgamma secretion.
The next data set is filed under the species Rattus norvegicus. Briefly: Antiinflammatory activity in Brown Norway rat acute OVA model of Th2 driven lung inflammation assessed as protection against eosinophil recruitment. The format is functional.
Data set [8] is described as follows: Inhibition of PI3K in human PBMC assessed as reduction in IFNgamma secretion.
The nature of data set [9]: Oral bioavailability in rat. The data set is classed as ADME, organism-based. The note with it: in vivo.
Data set [10] can be described thus: Aqueous solubility of the compound at pH 7.4. The format is physicochemical.

T1 sequence (P42338 whole entry, canonical isoform): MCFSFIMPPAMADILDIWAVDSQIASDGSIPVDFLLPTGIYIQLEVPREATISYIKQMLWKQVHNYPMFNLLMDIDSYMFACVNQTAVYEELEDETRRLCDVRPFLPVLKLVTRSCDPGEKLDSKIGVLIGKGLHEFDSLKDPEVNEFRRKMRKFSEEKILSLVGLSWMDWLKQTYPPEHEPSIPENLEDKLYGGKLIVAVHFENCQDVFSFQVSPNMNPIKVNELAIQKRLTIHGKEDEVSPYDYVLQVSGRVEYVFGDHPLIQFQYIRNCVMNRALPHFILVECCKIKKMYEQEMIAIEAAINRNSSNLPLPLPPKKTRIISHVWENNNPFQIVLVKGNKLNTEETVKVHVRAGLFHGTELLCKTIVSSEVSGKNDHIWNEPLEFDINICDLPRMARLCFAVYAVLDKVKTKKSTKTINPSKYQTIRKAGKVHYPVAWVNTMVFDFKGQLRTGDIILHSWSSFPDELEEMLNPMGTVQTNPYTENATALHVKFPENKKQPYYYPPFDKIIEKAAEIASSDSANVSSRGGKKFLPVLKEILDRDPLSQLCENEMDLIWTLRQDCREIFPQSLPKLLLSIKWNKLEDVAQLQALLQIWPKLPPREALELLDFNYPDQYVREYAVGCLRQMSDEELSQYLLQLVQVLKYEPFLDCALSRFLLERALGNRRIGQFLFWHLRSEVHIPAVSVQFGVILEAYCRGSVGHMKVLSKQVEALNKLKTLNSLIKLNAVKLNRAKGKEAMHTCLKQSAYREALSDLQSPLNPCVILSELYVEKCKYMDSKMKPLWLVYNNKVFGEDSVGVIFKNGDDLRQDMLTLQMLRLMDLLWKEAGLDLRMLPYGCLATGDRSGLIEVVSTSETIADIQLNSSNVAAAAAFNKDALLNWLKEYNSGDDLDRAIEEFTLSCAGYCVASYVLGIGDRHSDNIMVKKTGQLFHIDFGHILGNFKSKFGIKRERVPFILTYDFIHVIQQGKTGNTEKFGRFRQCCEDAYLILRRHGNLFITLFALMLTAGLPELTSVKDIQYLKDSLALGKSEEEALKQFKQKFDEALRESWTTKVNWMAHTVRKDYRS
Chain of Phosphatidylinositol 4,5-bisphosphate 3-kinase catalytic subunit gamma isoform (P48736 whole entry, canonical isoform): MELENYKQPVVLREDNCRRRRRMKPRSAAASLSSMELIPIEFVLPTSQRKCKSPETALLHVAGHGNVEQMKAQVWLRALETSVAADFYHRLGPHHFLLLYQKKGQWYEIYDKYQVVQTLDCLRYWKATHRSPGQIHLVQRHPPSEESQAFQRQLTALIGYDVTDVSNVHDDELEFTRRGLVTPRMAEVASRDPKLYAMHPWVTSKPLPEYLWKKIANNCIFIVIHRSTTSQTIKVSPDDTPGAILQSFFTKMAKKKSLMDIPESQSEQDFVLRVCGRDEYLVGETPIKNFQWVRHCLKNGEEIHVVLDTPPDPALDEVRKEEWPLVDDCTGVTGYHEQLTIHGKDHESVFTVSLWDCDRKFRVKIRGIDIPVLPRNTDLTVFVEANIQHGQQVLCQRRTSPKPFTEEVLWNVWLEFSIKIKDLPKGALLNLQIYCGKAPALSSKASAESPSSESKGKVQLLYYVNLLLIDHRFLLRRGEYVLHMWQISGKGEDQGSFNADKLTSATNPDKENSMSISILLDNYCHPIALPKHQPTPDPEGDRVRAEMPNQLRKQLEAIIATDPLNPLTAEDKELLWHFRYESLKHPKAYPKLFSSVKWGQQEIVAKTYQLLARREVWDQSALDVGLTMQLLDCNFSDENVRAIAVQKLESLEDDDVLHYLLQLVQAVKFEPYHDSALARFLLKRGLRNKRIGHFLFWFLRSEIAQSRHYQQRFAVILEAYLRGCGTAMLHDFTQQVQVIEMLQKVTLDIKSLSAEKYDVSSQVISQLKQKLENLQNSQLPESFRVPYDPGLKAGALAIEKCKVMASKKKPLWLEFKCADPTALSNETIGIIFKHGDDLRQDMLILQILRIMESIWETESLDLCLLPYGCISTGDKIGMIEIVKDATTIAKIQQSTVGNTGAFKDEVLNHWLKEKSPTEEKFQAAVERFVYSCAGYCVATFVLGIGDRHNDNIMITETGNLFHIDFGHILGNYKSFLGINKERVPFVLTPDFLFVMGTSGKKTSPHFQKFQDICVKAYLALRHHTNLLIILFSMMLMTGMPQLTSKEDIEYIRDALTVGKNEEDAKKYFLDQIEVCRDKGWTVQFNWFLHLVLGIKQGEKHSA
Chain of Phosphatidylinositol 4,5-bisphosphate 3-kinase catalytic subunit alpha isoform (P42336 whole entry, the tested form may be a part, canonical isoform): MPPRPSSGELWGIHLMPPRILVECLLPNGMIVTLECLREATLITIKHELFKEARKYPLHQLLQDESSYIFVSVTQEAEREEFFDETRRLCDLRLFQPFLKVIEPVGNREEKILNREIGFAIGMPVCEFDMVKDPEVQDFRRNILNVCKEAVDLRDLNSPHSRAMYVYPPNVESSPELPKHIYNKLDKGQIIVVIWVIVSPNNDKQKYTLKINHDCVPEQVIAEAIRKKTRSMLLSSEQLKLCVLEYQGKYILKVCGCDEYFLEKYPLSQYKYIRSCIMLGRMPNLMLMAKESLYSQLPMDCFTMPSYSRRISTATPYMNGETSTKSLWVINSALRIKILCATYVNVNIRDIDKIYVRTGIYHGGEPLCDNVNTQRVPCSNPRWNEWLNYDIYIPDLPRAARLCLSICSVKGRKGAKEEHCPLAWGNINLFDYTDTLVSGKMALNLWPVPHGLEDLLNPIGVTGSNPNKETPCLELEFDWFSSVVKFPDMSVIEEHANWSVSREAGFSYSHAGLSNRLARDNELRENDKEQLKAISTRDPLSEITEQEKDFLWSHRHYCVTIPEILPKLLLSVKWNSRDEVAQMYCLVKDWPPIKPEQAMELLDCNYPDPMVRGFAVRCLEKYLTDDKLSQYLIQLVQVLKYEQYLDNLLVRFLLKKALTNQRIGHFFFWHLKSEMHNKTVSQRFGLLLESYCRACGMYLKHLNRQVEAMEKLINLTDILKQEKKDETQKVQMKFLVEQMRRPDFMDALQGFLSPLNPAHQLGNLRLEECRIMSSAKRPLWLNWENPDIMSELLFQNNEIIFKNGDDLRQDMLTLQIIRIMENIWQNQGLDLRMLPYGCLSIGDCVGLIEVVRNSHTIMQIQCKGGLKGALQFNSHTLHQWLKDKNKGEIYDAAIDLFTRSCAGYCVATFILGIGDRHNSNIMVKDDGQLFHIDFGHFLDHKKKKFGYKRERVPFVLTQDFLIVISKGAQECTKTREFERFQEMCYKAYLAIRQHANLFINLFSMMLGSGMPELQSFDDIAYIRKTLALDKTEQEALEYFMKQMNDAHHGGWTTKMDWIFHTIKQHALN

As to `Cc1nc(C(=O)Nc2cc(-c3cnc(Cl)c(NS(=O)(=O)c4ccccc4)c3)cc3[nH]ncc23)cs1`, the 50% inhibitory concentration (IC50) in data set [1] is 50.1 nM; in data set [2], 1000 nM; in [3] it was 2 nM; in data set [4], 316 nM.
Turning to `O=C(NC1=Nc2ccccc2C2=NCCN12)c1cccnc1`, the concentration for half-maximal inhibition (IC50) in data set [5] stood at 1 nM.
With `COc1ncc(-c2cc(-c3ncc(CN4C[C@@H](C)O[C@@H](C)C4)o3)c3cn[nH]c3c2)cc1NS(C)(=O)=O`, the results for the IC50 in data set [6] and in [7] were 3.16 nM and 2 nM, respectively. In addition, the figures for the inhibitory constant (Ki) in [1], in [2] and in data set [4] were 501 nM, 631 nM and 501 nM, respectively. In addition, in the data set filed under Rattus norvegicus, the ED50 was found to be 0.035 mg/kg. The pKi in data set [8] is recorded as 9.2.
Consider `CC(C)N1CCN(Cc2cnc(-c3cc(-c4cccc5[nH]ccc45)cc4[nH]ncc34)o2)CC1` [NEMIRALISIB], for which the bioavailability in data set [9] is under 2%.
In [10], `Cc1nnc2n1[C@@H]1CCN(Cc3cc4nc(-c5cccc6[nH]ccc56)nc(N5CCOCC5)c4s3)C[C@@H]1CC2` came in with a solubility of 20 µg/mL (≈ 37 µM). In addition, in data set [3], the half-maximal inhibitory concentration (IC50) was 0.794 nM.
